Measurements taken from publication PMC8896928, “Preparation, Characterization, and Preliminary Imaging Study of [^188Re]Re-Ibandronate as a Novel Theranostic Radiopharmaceutical for Bone Metastasis” (Contrast Media & Molecular Imaging, 2022).
Read-outs that look alike come from different tables or passages of the source.

Key:
[1] = Biodistribution in normal mice; assay type: in vivo, Kunming mice
Experimental: Twenty Kunming mice (originated from Swiss albino mice and introduced into Kunming, China.) were randomly divided into five groups (equal number of males and females). Each group was injected with 3.7 MBq [^188Re]Re-IBA. […] The blood and important tissue and organ samples were collected to measure the radioactivity count by γ counter. Following the time attenuation correction, the percentage injection dose rate per gram of tissue (%ID/g) was calculated at each time point. The result is expressed as mean ± standard deviation ( χ¯ ± s). The in vivo distribution of [^188Re]ReO4^− was studied using the aforementioned method.

patients = conditions: cited from earlier work; for Nephrotoxicity: patients, renal safety
[2] = Swiss mice, cited from earlier work
[3] = 0.9% NaCl, 24 h; cited from earlier work
[4] = Kunming mice, 24 h, cited from earlier work
[5] = patients with bone tumors, P < 0.05

## [O]=[188Re](=[O])(=[O])[O-] [[^188Re]ReO4^−, reference compound]
[1]; 1 h
  %ID/g Blood: 4.648 ± 1.631 %ID/g
  %ID/g Brain: 0.207 ± 0.044 %ID/g
  %ID/g Femur: 1.670 ± 0.345 %ID/g
  %ID/g Gonad: 1.096 ± 0.007 %ID/g
  %ID/g Heart: 1.422 ± 0.339 %ID/g
  %ID/g Kidney: 2.923 ± 0.658 %ID/g
  %ID/g Liver: 2.480 ± 0.556 %ID/g
  %ID/g Lung: 4.458 ± 1.379 %ID/g
  %ID/g Muscle: 0.775 ± 0.074 %ID/g
  %ID/g Small intestine: 1.671 ± 0.448 %ID/g
  %ID/g Spleen: 2.341 ± 0.973 %ID/g
  %ID/g Stomach: 22.747 ± 5.67 %ID/g
  %ID/g Thyroid gland: 20.247 ± 2.489 %ID/g
  Femur/heart radioactivity ratio: 1.195
  Femur/liver radioactivity ratio: 0.685
  Femur/muscle radioactivity ratio: 2.193
[1]; 3 h
  %ID/g Blood: 1.578 ± 0.419 %ID/g
  %ID/g Brain: 0.070 ± 0.024 %ID/g
  %ID/g Femur: 0.431 ± 0.038 %ID/g
  %ID/g Gonad: 0.404 ± 0.130 %ID/g
  %ID/g Heart: 0.401 ± 0.050 %ID/g
  %ID/g Kidney: 0.683 ± 0.118 %ID/g
  %ID/g Liver: 0.530 ± 0.038 %ID/g
  %ID/g Lung: 1.026 ± 0.312 %ID/g
  %ID/g Muscle: 0.182 ± 0.023 %ID/g
  %ID/g Small intestine: 0.558 ± 0.207 %ID/g
  %ID/g Spleen: 0.490 ± 0.090 %ID/g
  %ID/g Stomach: 8.578 ± 3.928 %ID/g
  %ID/g Thyroid gland: 10.167 ± 1.618 %ID/g
  Femur/heart radioactivity ratio: 1.075
  Femur/liver radioactivity ratio: 0.813
  Femur/muscle radioactivity ratio: 2.372
[1]; 6 h
  %ID/g Blood: 0.533 ± 0.254 %ID/g
  %ID/g Brain: 0.044 ± 0.019 %ID/g
  %ID/g Femur: 0.213 ± 0.102 %ID/g
  %ID/g Gonad: 0.207 ± 0.065 %ID/g
  %ID/g Heart: 0.176 ± 0.074 %ID/g
  %ID/g Kidney: 0.338 ± 0.191 %ID/g
  %ID/g Liver: 0.258 ± 0.086 %ID/g
  %ID/g Lung: 0.487 ± 0.132 %ID/g
  %ID/g Muscle: 0.109 ± 0.065 %ID/g
  %ID/g Small intestine: 0.263 ± 0.050 %ID/g
  %ID/g Spleen: 0.270 ± 0.098 %ID/g
  %ID/g Stomach: 2.828 ± 1.287 %ID/g
  %ID/g Thyroid gland: 4.299 ± 1.015 %ID/g
  Femur/heart radioactivity ratio: 1.205
  Femur/liver radioactivity ratio: 0.823
  Femur/muscle radioactivity ratio: 1.950
[1]; 24 h
  %ID/g Blood: 0.023 ± 0.009 %ID/g
  %ID/g Brain: 0.017 ± 0.004 %ID/g
  %ID/g Femur: 0.031 ± 0.003 %ID/g
  %ID/g Gonad: 0.021 ± 0.009 %ID/g
  %ID/g Heart: 0.017 ± 0.005 %ID/g
  %ID/g Kidney: 0.017 ± 0.003 %ID/g
  %ID/g Liver: 0.023 ± 0.010 %ID/g
  %ID/g Lung: 0.054 ± 0.017 %ID/g
  %ID/g Muscle: 0.021 ± 0.008 %ID/g
  %ID/g Small intestine: 0.023 ± 0.004 %ID/g
  %ID/g Spleen: 0.028 ± 0.007 %ID/g
  %ID/g Stomach: 0.053 ± 0.032 %ID/g
  %ID/g Thyroid gland: 0.051 ± 0.026 %ID/g
  Femur/heart radioactivity ratio: 1.853
  Femur/liver radioactivity ratio: 1.325
  Femur/muscle radioactivity ratio: 1.498
[1]; 48 h
  %ID/g Blood: 0.007 ± 0.002 %ID/g
  %ID/g Brain: 0.013 ± 0.006 %ID/g
  %ID/g Femur: 0.011 ± 0.005 %ID/g
  %ID/g Gonad: 0.007 ± 0.001 %ID/g
  %ID/g Heart: 0.011 ± 0.004 %ID/g
  %ID/g Kidney: 0.017 ± 0.007 %ID/g
  %ID/g Liver: 0.018 ± 0.010 %ID/g
  %ID/g Lung: 0.036 ± 0.008 %ID/g
  %ID/g Muscle: 0.020 ± 0.005 %ID/g
  %ID/g Small intestine: 0.014 ± 0.005 %ID/g
  %ID/g Spleen: 0.022 ± 0.006 %ID/g
  %ID/g Stomach: 0.029 ± 0.012 %ID/g
  %ID/g Thyroid gland: 0.025 ± 0.009 %ID/g
  Femur/heart radioactivity ratio: 1.060
  Femur/liver radioactivity ratio: 0.638
  Femur/muscle radioactivity ratio: 0.585

## CCCCCN(C)CCC(O)(P(=O)(O)O)P(=O)(O)O [ibandronic acid, Ibandronic acid]
patients; 44 patients, average follow-up of 18.5 months
  Renal function during follow-up: no impairment of renal function
patients; [5]
  Pain relief rate and improvement in the quality of life vs zoledronic acid group: higher
  Rate of adverse reactions vs zoledronic acid group: lower
patients
  Nephrotoxicity: extremely low and equivalent to that of the placebo

## [^188Re]Re-pamidronate [[^188Re]Re-PMA]
[2]; 1 h
  Bone uptake (lowest): 0.40 ± 0.05 %ID/g
[2]; 4 h
  Bone uptake (highest): 0.81 ± 0.25 %ID/g

## [^188Re]Re-bisphosphonate hydroxyethylidene diphosphonate [[^188Re]Re-HEDP]
[3]
  Stability (RCP): 91.2%
[4]; ref 37
  Bone uptake: 22.36 ± 4.11 %ID/g
[4]; ref 38
  Bone uptake: 11.08 ± 4.25 %ID/g
[2]; 4 h
  Bone uptake (maximum): 1.0 ± 0.1 %ID/g

## O=P(O)(O)C(O)(Cn1ccnc1)P(=O)(O)O [zoledronic acid]
patients
  Nephrotoxicity: possible occurrence of nephrotoxicity
